Measured values from the CheMixHub ionic liquid set.

Assay: xn = mol fraction of the nth substance listed
Conditions: 101 kPa

CCCC[n+]1ccn(C)c1.CS(=O)(=O)[O-] + O
Conditions | electrical conductivity [S/m] | viscosity [mPa·s]
298.15 K, x2 = 0.6542 | – | 31.9
298.15 K, x2 = 0.7014 | – | 25.2
298.15 K, x2 = 0.7494 | – | 19.09
298.15 K, x2 = 0.796 | 1.23 | –
298.15 K, x2 = 0.951 | 4.06 | –
298.15 K, x2 = 0.975 | – | 1.643
299.15 K, x1 = 0.008 | 2.11 | –
299.15 K, x2 = 0.892 | 2.96 | –
299.15 K, x2 = 0.951 | 4.12 | –
300.15 K, x1 = 0.004 | 1.24 | –
301.15 K, x2 = 0.861 | 2.53 | –
302.15 K, x2 = 0.861 | 2.61 | –
305.15 K, x1 = 0.004 | 1.37 | –
305.15 K, x2 = 0.861 | 2.84 | –
306.15 K, x1 = 0.004 | 1.4 | –
307.15 K, x1 = 0.008 | 2.51 | –
308.15 K, x1 = 0.019 | 4.06 | –
308.15 K, x2 = 0.861 | 3.08 | –
308.15 K, x2 = 0.968 | 4.94 | –
309.15 K, x2 = 0.968 | 5.03 | –
310.15 K, x1 = 0.019 | 4.22 | –
310.15 K, x2 = 0.861 | 3.25 | –
310.15 K, x2 = 0.892 | 4.03 | –
310.15 K, x2 = 0.968 | 5.11 | –
311.15 K, x2 = 0.861 | 3.35 | –
313.15 K, x2 = 0.892 | 4.42 | –
313.15 K, x2 = 0.9004 | – | 3.71
315.15 K, x2 = 0.968 | 5.63 | –
316.15 K, x2 = 0.951 | 6.44 | –
317.15 K, x1 = 0.004 | 1.7 | –
317.15 K, x2 = 0.951 | 6.52 | –
317.15 K, x2 = 0.968 | 5.83 | –
318.15 K, x2 = 0.929 | 5.89 | –
319.15 K, x2 = 0.861 | 4.14 | –
319.15 K, x2 = 0.968 | 6.08 | –
320.15 K, x1 = 0.004 | 1.79 | –
320.15 K, x1 = 0.019 | 5.15 | –
320.15 K, x2 = 0.892 | 5.23 | –
320.15 K, x2 = 0.968 | 6.17 | –
321.15 K, x2 = 0.968 | 6.3 | –
322.15 K, x2 = 0.892 | 5.48 | –
322.15 K, x2 = 0.929 | 6.42 | –
323.15 K, x2 = 0.8015 | – | 6.16
323.15 K, x2 = 0.9503 | – | 1.503
323.15 K, x2 = 0.951 | 7.08 | –
324.15 K, x1 = 0.004 | 1.91 | –
324.15 K, x1 = 0.008 | 3.39 | –
324.15 K, x1 = 0.019 | 5.48 | –
324.15 K, x2 = 0.892 | 5.72 | –
325.15 K, x1 = 0.008 | 3.45 | –
325.15 K, x1 = 0.019 | 5.57 | –
325.15 K, x2 = 0.929 | 6.93 | –
326.15 K, x1 = 0.004 | 1.98 | –
326.15 K, x2 = 0.929 | 6.92 | –
326.15 K, x2 = 0.968 | 6.88 | –
327.15 K, x2 = 0.861 | 5.02 | –
327.15 K, x2 = 0.929 | 7.05 | –
328.15 K, x1 = 0.019 | 5.74 | –
328.15 K, x2 = 0.951 | 7.6 | –
329.15 K, x2 = 0.968 | 7.25 | –
331.15 K, x1 = 0.019 | 6.08 | –
331.15 K, x2 = 0.861 | 5.49 | –
332.15 K, x2 = 0.929 | 7.74 | –
332.15 K, x2 = 0.951 | 8.16 | –
333.15 K, x2 = 0.7014 | – | 8.05
333.15 K, x2 = 0.8015 | – | 4.67
333.15 K, x2 = 0.9004 | – | 2.3
333.15 K, x2 = 0.9503 | – | 1.24
333.15 K, x2 = 0.968 | 7.66 | –
334.15 K, x2 = 0.968 | 7.78 | –
335.15 K, x1 = 0.004 | 2.24 | –
336.15 K, x1 = 0.004 | 2.27 | –
336.15 K, x2 = 0.951 | 8.7 | –
337.15 K, x2 = 0.861 | 6.31 | –
337.15 K, x2 = 0.929 | 8.44 | –
338.15 K, x1 = 0.019 | 6.52 | –
338.15 K, x2 = 0.861 | 6.33 | –
338.15 K, x2 = 0.951 | 8.96 | –
339.15 K, x2 = 0.968 | 8.41 | –
341.15 K, x2 = 0.892 | 7.89 | –
342.15 K, x1 = 0.004 | 2.44 | –
342.15 K, x2 = 0.861 | 6.89 | –
342.15 K, x2 = 0.892 | 7.96 | –
343.15 K, x1 = 0.004 | 2.46 | –
343.15 K, x2 = 0.6542 | – | 7.44
343.15 K, x2 = 0.8521 | – | 2.67
343.15 K, x2 = 0.892 | 8.05 | –
344.15 K, x2 = 0.929 | 9.45 | –
345.15 K, x1 = 0.004 | 2.53 | –
345.15 K, x2 = 0.951 | 10 | –
345.15 K, x2 = 0.968 | 8.98 | –
346.15 K, x1 = 0.008 | 4.56 | –
346.15 K, x2 = 0.951 | 10.1 | –
347.15 K, x2 = 0.861 | 7.63 | –
347.15 K, x2 = 0.892 | 8.62 | –
348.15 K, x1 = 0.004 | 2.61 | –
348.15 K, x2 = 0.892 | 8.76 | –
349.15 K, x2 = 0.861 | 7.79 | –
349.15 K, x2 = 0.951 | 10.6 | –
350.15 K, x1 = 0.019 | 7.75 | –
352.15 K, x1 = 0.019 | 7.98 | –
352.15 K, x2 = 0.951 | 10.9 | –
353.15 K, x1 = 0.004 | 2.76 | –
353.15 K, x2 = 0.861 | 8.33 | –
353.15 K, x2 = 0.951 | 11.1 | –
354.15 K, x2 = 0.861 | 8.44 | –
355.15 K, x1 = 0.004 | 2.83 | –
355.15 K, x2 = 0.968 | 10.3 | –
356.15 K, x1 = 0.004 | 2.82 | –
357.15 K, x1 = 0.004 | 2.86 | –
357.15 K, x2 = 0.929 | 11.3 | –
357.15 K, x2 = 0.951 | 11.3 | –
358.15 K, x2 = 0.892 | 10.1 | –
